# Legend:
# Format in all cases: in vivo
# barnyard grass [1] = experiment: Test Example 1: weedkilling efficacy, preemergent weed treatment in the submerged state; A: barnyard grass; conditions: treatment dosage 320 g/ha
# In short: (§1)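 Alluvial soil in Wagner pots flooded to 4 cm; barnyard grass, bulrush and oval-leafed pondweed seeds sown, then 2.5-leaf rice seedlings transplanted. Same day, emulsified compound diluted in water to set g/ha dosages and applied to water surface; greenhouse 25–30 °C, effect scored by criteria after 3 weeks.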
# bulrush [2] = experiment: Test Example 1: weedkilling efficacy, preemergent weed treatment in the submerged state; B: bulrush; conditions: treatment dosage 320 g/ha
# In short: as §1
# oval-leafed pondweed [3] = experiment: Test Example 1: weedkilling efficacy, preemergent weed treatment in the submerged state; C: oval-leafed pondweed; conditions: treatment dosage 320 g/ha
# In short: as §1
# transplanted rice = experiment: Test Example 1: preemergent weed treatment in the submerged state, effect on crop; a: transplanted rice; conditions: treatment dosage 320 g/ha
# In short: as §1
# barnyard grass [4] = experiment: Test Example 2: weedkilling efficacy, growth period weed treatment in the submerged state; A: barnyard grass; conditions: treatment dosage 320 g/ha
# In short: (§2)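 First, alluvial soil in pots is flooded to 4 cm and mixed seed is sown. Next, plants grow in a greenhouse at 25 to 30° C until the 1-2 leaf stage. Then diluted emulsion is applied onto the water surface at the given g/ha rate, and injury is assessed after 3 weeks.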
# bulrush [5] = experiment: Test Example 2: weedkilling efficacy, growth period weed treatment in the submerged state; B: bulrush; conditions: treatment dosage 320 g/ha
# In short: as §2
# oval-leafed pondweed [6] = experiment: Test Example 2: weedkilling efficacy, growth period weed treatment in the submerged state; C: oval-leafed pondweed; conditions: treatment dosage 320 g/ha
# In short: as §2
# crabgrass = experiment: Test Example 3: weedkilling efficacy through soil treatment; D: crabgrass; conditions: soil treatment, treatment dosage 320 g/ha
# In short: (§3)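 Crop and weed responses were judged three weeks after a uniform surface spray of the water-diluted emulsion at the given g/ha rate. Seeds sat beneath about 1.5 cm of sterilized diluvial soil, and boxes stood in a greenhouse at 25 to 30° C.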
# green foxtail = experiment: Test Example 3: weedkilling efficacy through soil treatment; E: green foxtail; conditions: soil treatment, treatment dosage 320 g/ha
# In short: as §3
# barnyard grass [7] = experiment: Test Example 3: weedkilling efficacy through soil treatment; F: barnyard grass; conditions: soil treatment, treatment dosage 320 g/ha
# Text: Weedkilling Efficacy Test Through Soil Treatment
# Sterilized diluvial soil was introduced into 21 cm long, 13 cm wide, 7 cm deep plastic boxes, and seeds of crabgrass, green foxtail, barnyard grass, wild oat, black-grass, Italian ryegrass, common wind-grass, Indian mallow, redroot pigweed, fig-leafed goosefoot, chickweed, catchweed, birds-eye speedwell, corn, soybean, rice, wheat, beet and rapeseed were each spot-sown, and covered with about 1.5 cm of soil. Next, emulsions of compounds of the present invention prepared according to compounding example 2 were diluted with water to give the specified dosages, and applied uniformly onto the soil surface with a small sprayer. The plants were grown by placing the plastic boxes in a greenhouse at 25 to 30° C., and 3 weeks after the pesticide treatment the effect on each type of plant was investigated on the basis of the assessment criteria of test example 1.
# A: barnyard grass, B: bulrush, C: oval-leafed pondweed, D: crabgrass, E: green foxtail, F: barnyard grass, G: wild oat, H: black-grass, I: Italian ryegrass, J: common wind-grass, K: Indian mallow, L: redroot pigweed, M: fig-leafed goosefoot, N: chickweed, O: catchweed, p: birds-eye speedwell, a: transplanted rice, b: directly sown rice, c: corn, d: soybean, e: wheat, f: beet, g: rapeseed
# Further, pesticide dosage (g/ha) indicates the concentration regulated such that treatment was with only the stated number of grams (g), when calculated per hectare (ha).
# wild oat = experiment: Test Example 3: weedkilling efficacy through soil treatment; G: wild oat; conditions: soil treatment, treatment dosage 320 g/ha
# In short: as §3
# black-grass = experiment: Test Example 3: weedkilling efficacy through soil treatment; H: black-grass; conditions: soil treatment, treatment dosage 320 g/ha
# In short: as §3
# Italian ryegrass = experiment: Test Example 3: weedkilling efficacy through soil treatment; I: Italian ryegrass; conditions: soil treatment, treatment dosage 320 g/ha
# In short: as §3
# common wind-grass = experiment: Test Example 3: weedkilling efficacy through soil treatment; J: common wind-grass; conditions: soil treatment, treatment dosage 320 g/ha
# In short: as §3
# Indian mallow = experiment: Test Example 3: weedkilling efficacy through soil treatment; K: Indian mallow; conditions: soil treatment, treatment dosage 320 g/ha
# In short: as §3
# redroot pigweed = experiment: Test Example 3: weedkilling efficacy through soil treatment; L: redroot pigweed; conditions: soil treatment, treatment dosage 320 g/ha
# In short: as §3
# fig-leafed goosefoot = experiment: Test Example 3: weedkilling efficacy through soil treatment; M: fig-leafed goosefoot; conditions: soil treatment, treatment dosage 320 g/ha
# In short: as §3
# chickweed = experiment: Test Example 3: weedkilling efficacy through soil treatment; N: chickweed; conditions: soil treatment, treatment dosage 320 g/ha
# In short: as §3
# birds-eye speedwell = experiment: Test Example 3: weedkilling efficacy through soil treatment; p: birds-eye speedwell; conditions: soil treatment, treatment dosage 320 g/ha
# In short: as §3
# directly sown rice = experiment: Test Example 3: soil treatment, effect on crop; b: directly sown rice; conditions: soil treatment, treatment dosage 320 g/ha
# In short: as §3
# corn = experiment: Test Example 3: soil treatment, effect on crop; c: corn; conditions: soil treatment, treatment dosage 320 g/ha
# In short: as §3
# soybean = experiment: Test Example 3: soil treatment, effect on crop; d: soybean; conditions: soil treatment, treatment dosage 320 g/ha
# In short: as §3
# wheat = experiment: Test Example 3: soil treatment, effect on crop; e: wheat; conditions: soil treatment, treatment dosage 320 g/ha
# In short: as §3
# beet = experiment: Test Example 3: soil treatment, effect on crop; f: beet; conditions: soil treatment, treatment dosage 320 g/ha
# In short: as §3
# rapeseed = experiment: Test Example 3: soil treatment, effect on crop; g: rapeseed; conditions: soil treatment, treatment dosage 320 g/ha
# In short: as §3
structure (smiles),measurement,setting,value
CC(C)(C(=O)Nc1cc(OC(F)F)cc(Cl)n1)N1COCN(c2ccccc2)C1=O [A-2-34],"A: barnyard grass, weed kill grade",barnyard grass [1],"5 (weed kill ratio 90% or more, (practically complete withering))"
same,"B: bulrush, weed kill grade",bulrush [2],"5 (weed kill ratio 90% or more, (practically complete withering))"
same,"C: oval-leafed pondweed, weed kill grade",oval-leafed pondweed [3],"5 (weed kill ratio 90% or more, (practically complete withering))"
same,"a: transplanted rice, effect on crop grade",transplanted rice,"3 (weed kill ratio 40% or more, less than 70%)"
same,A (barnyard grass) weedkilling efficacy grade,barnyard grass [4],"5 (weed kill ratio 90% or more, (practically complete withering))"
same,B (bulrush) weedkilling efficacy grade,bulrush [5],"5 (weed kill ratio 90% or more, (practically complete withering))"
same,C (oval-leafed pondweed) weedkilling efficacy grade,oval-leafed pondweed [6],"5 (weed kill ratio 90% or more, (practically complete withering))"
same,"D: crabgrass, weedkilling efficacy grade",crabgrass,"5 (weed kill ratio 90% or more, (practically complete withering))"
same,"E: green foxtail, weedkilling efficacy grade",green foxtail,"5 (weed kill ratio 90% or more, (practically complete withering))"
same,"F: barnyard grass, weedkilling efficacy grade",barnyard grass [7],"5 (weed kill ratio 90% or more, (practically complete withering))"
same,"G: wild oat, weedkilling efficacy grade",wild oat,"5 (weed kill ratio 90% or more, (practically complete withering))"
same,"H: black-grass, weedkilling efficacy grade",black-grass,"5 (weed kill ratio 90% or more, (practically complete withering))"
same,"I: Italian ryegrass, weedkilling efficacy grade",Italian ryegrass,"5 (weed kill ratio 90% or more, (practically complete withering))"
same,"J: common wind-grass, weedkilling efficacy grade",common wind-grass,"5 (weed kill ratio 90% or more, (practically complete withering))"
same,"K: Indian mallow, weedkilling efficacy grade",Indian mallow,0 (weed kill ratio 5% or less (practically no effect))
same,"L: redroot pigweed, weedkilling efficacy grade",redroot pigweed,0 (weed kill ratio 5% or less (practically no effect))
same,"M: fig-leafed goosefoot, weedkilling efficacy grade",fig-leafed goosefoot,"4 (weed kill ratio 70% or more, less than 90%)"
same,"N: chickweed, weedkilling efficacy grade",chickweed,"4 (weed kill ratio 70% or more, less than 90%)"
same,"P: birds-eye speedwell, weedkilling efficacy grade",birds-eye speedwell,"4 (weed kill ratio 70% or more, less than 90%)"
same,"b: directly sown rice, effect on crop grade",directly sown rice,"4 (weed kill ratio 70% or more, less than 90%)"
same,"c: corn, effect on crop grade",corn,0 (weed kill ratio 5% or less (practically no effect))
same,"d: soybean, effect on crop grade",soybean,0 (weed kill ratio 5% or less (practically no effect))
same,"e: wheat, effect on crop grade",wheat,0 (weed kill ratio 5% or less (practically no effect))
same,"f: beet, effect on crop grade",beet,"4 (weed kill ratio 70% or more, less than 90%)"
same,"g: rapeseed, effect on crop grade",rapeseed,"1 (weed kill ratio 5% or more, less than 20%)"

# Source: patent US9738634B2, “Heterocyclic amide compound and herbicide” (SYNGENTA PARTICIPATIONS AG, priority 2013, dated 2017)
